pIC50: −log10 of the molar value.
Target: D(2) dopamine receptor (Rattus norvegicus, UniProt P61169)
Test: Displacement of spiperone from dopamine receptor D2 of rat brain membrane

D(2) dopamine receptor, sequence (P61169 whole entry): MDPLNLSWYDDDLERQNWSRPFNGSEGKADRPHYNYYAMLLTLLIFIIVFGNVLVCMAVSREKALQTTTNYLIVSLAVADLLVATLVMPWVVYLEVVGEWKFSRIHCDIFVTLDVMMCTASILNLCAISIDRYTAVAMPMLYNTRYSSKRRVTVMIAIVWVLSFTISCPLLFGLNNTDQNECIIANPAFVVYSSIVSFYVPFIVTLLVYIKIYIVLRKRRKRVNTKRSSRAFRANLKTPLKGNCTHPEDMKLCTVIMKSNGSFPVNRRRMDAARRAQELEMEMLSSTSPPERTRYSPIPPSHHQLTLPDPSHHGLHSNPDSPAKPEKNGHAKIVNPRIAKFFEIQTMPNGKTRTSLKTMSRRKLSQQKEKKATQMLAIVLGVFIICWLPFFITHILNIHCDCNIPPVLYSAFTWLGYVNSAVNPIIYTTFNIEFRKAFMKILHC

Q: CCc1ccc(N2CCC[C@@H](c3cccc(O)c3)C2)cc1 was tested. Which pIC50 did it give?
A: 7.36

Q: With CN1CCC[C@H](c2cccc(O)c2)C1 as the compound, how does the pIC50 read?
A: 6.21

Q: How did the pIC50 turn out when CCCCN1CCC[C@H](c2cccc(O)c2)C1 was run?
A: 6.37

Q: How did the pIC50 turn out when CN1CCC[C@@H](c2cccc(O)c2)C1 was run?
A: 6.54

Q: With CCc1ccc(N2CCC[C@H](c3cccc(O)c3)C2)cc1 as the compound, how does the pIC50 read?
A: 5.91
